The text below walks through data of US9776979B2, “EBI2 modulators” (Sanford-Burnham Medical Research Institute, priority 2013, dated 2017).

This experiment addresses EBI2 (Homo sapiens, UniProt P32249). Nature of the experiment: Cell-based luminescent assay (EBI2 modulation). The essentials: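 Cells plated overnight at 37° C, then exposed to compound at 4-5 uM final with 80 nM 7a,25-OHC agonist for 60 min at 37° C. Luminescence read after 60 min detection at 25° C in the dark; values normalized to neutral and stimulator controls and plate-pattern corrected.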

Setting [1] is: cell-based luminescence, 7a,25-OHC final assay concentration 80 nM, 60 minutes incubation, read-out: IC50.

Where two headings read alike, the source gives them in different places.

EBI2, sequence (P32249 whole entry): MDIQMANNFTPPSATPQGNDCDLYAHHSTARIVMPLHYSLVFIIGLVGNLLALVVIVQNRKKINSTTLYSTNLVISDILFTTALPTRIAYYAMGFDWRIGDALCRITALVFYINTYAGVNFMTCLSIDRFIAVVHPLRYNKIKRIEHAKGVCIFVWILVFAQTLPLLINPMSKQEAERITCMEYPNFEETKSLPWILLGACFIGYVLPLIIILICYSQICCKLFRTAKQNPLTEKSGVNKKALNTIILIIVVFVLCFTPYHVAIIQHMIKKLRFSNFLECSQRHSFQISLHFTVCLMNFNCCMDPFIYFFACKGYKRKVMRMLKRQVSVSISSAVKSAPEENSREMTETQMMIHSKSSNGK

For the compound `Cc1cc2[nH]c(C(=O)N3CCN(C(c4ccccc4)c4ccccc4)CC3)cc2s1` [Compound C228, 4-(diphenylmethyl)piperazinyl 2-methylthiopheno[2,3-d]pyrrol-5-yl ketone], the IC50 under setting [1] was less than 100 nM.

For `O=C(c1ccccc1)C1CCN(C(=O)c2cc3cc(Cl)ccc3[nH]2)CC1` [Compound C229, 5-chloroindol-2-yl 4-(phenylcarbonyl)piperidyl ketone], under setting [1], the IC50 was less than 100 nM.

As to `O=C(/C=C/c1ccc(Cl)c(Cl)c1)N1CCN(S(=O)(=O)c2ccccc2)CC1` [Compound C230, (2E)-3-(3,4-dichlorophenyl)-1-[4-(phenylsulfonyl)piperazinyl]prop-2-en-1-one], under setting [1], the IC50 was less than 100 nM.

As to `O=C(C#Cc1ccc(C(F)(F)F)cc1)N1CCN(Cc2ccc(F)cc2)CC1` [Compound C231, 1-{4-[(4-fluorophenyl)methyl]piperazinyl}-3-[4-(trifluoromethyl)phenyl]prop-2-yn-1-one], the IC50 under setting [1] was less than 100 nM.

Consider `CCN(CC)c1ccc(C(=O)N2CCN(C(=O)c3cc4cc(Cl)ccc4[nH]3)CC2)cc1` [Compound C232, 4-{[4-(diethylamino)phenyl]carbonyl}piperazinyl 5-chloroindol-2-yl ketone], for which, under setting [1], the IC50 was less than 100 nM.

As to `CN(C)c1ccc(/C=C/C(=O)N2CCN(C(c3ccccc3)c3ccccc3)CC2)cc1` [Compound C233, (2E)-3-[4-(dimethylamino)phenyl]-1-[4-(diphenylmethyl)piperazinyl]prop-2-en-1-one], the half-maximal inhibitory concentration (IC50) under setting [1] is less than 100 nM.

Consider `O=C(C=Cc1ccc2c(c1)OCO2)N1CCN(C(=O)c2ccc(Br)cc2)CC1` [Compound C234, 3-(2H-benzo[3,4-d]1,3-dioxolan-5-yl)-1-{4-[(4-bromophenyl)carbonyl]piperazinyl}prop-2-en-1-one], for which the IC50 under setting [1] was less than 100 nM.

Turning to `O=C(/C=C/c1ccc(F)cc1)N1CCN(S(=O)(=O)c2ccc(F)cc2)CC1` [Compound C235, (2E)-3-(4-fluorophenyl)-1-{4-[(4-fluorophenyl)sulfonyl]piperazinyl}prop-2-en-1-one], under setting [1], the IC50 was less than 100 nM.

For `COc1ccc(CN2CCN(C(=O)C#Cc3ccc(C)cc3)CC2)cc1` [Compound C236, 1-{4-[(4-methoxyphenyl)methyl]piperazinyl}-3-(4-methylphenyl)prop-2-yn-1-one], the concentration for half-maximal inhibition (IC50) under setting [1] was less than 100 nM.

Take `O=C(/C=C/c1ccc(F)cc1)N1CCN(S(=O)(=O)c2ccccc2F)CC1` [Compound C237, (2E)-3-(4-fluorophenyl)-1-{4-[(2-fluorophenyl)sulfonyl]piperazinyl}prop-2-en-1-one]: under setting [1], the IC50 is less than 100 nM.

For the compound `O=C(C=Cc1ccc2c(c1)OCO2)N1CCN(C(=O)c2ccc(Cl)cc2)CC1` [Compound C238, 3-(2H-benzo[3,4-d]1,3-dioxolen-5-yl)-1-{4-[(4-chlorophenyl)carbonyl]piperazinyl}prop-2-en-1-one], under setting [1], the IC50 was less than 100 nM.

`O=C(/C=C/c1ccccc1)N1CCN(Cc2cccc(F)c2)CC1` [Compound C240, (2E)-1-{4-[(3-fluorophenyl)methyl]piperazinyl}-3-phenylprop-2-en-1-one] yielded an IC50 of less than 100 nM.

For the compound `Cc1ccccc1/C=C/C(=O)N1CCN(C(c2ccccc2)c2ccccc2)CC1` [Compound C241, (2E)-1-[4-(diphenylmethyl)piperazinyl]-3-(2-methylphenyl)prop-2-en-1-one], the IC50 under setting [1] is less than 100 nM.

As for `Cn1c(C(=O)N2CCN(C(c3ccccc3)c3ccccc3)CC2)cc2ccccc21` [Compound C242, 4-(diphenylmethyl)piperazinyl 1-methylindol-2-yl ketone], the IC50 under setting [1] was less than 100 nM.

Consider `O=C(c1ccccc1)N1CCN(C(=O)c2cc3cc(Cl)ccc3[nH]2)CC1` [Compound C243, 5-chloroindol-2-yl 4-(phenylcarbonyl)piperazinyl ketone], for which the IC50 under setting [1] is less than 100 nM.

In the case of `Cc1ccc2[nH]c(C(=O)N3CCN(Cc4ccc(C(C)(C)C)cc4)CC3)cc2c1` [Compound C244, 4-{[4-(tert-butyl)phenyl]methyl}piperazinyl 5-methylindol-2-yl ketone], the IC50 under setting [1] was less than 100 nM.

As to `Cc1ccc(C#CC(=O)N2CCN(Cc3ccc(Cl)cc3)CC2)cc1` [Compound C245, 1-{4-[(4-chlorophenyl)methyl]piperazinyl}-3-(4-methylphenyl)prop-2-yn-1-one], the IC50 under setting [1] is less than 100 nM.

On to `O=C(c1cc2cc(C(F)(F)F)ccc2[nH]1)N1CCN(C(=O)c2ccc(Cl)cc2Cl)CC1` [Compound C246, 4-[(2,4-dichlorophenyl)carbonyl]piperazinyl 5-(trifluoromethyl)indol-2-yl ketone], for which the IC50 under setting [1] is less than 100 nM.

For `O=C(c1ccc2sccc2c1)N1CCN(C(c2ccccc2)c2ccccc2)CC1` [Compound C247, benzo[b]thiophen-5-yl 4-(diphenylmethyl)piperazinyl ketone], under setting [1], the IC50 is less than 100 nM.

Take `O=C(/C=C/c1ccccc1)N1CCN(Cc2ccc(F)cc2)CC1` [Compound C248, (2E)-1-{4-[(4-fluorophenyl)methyl]piperazinyl}-3-phenylprop-2-en-1-one]: the concentration for half-maximal inhibition (IC50) under setting [1] is less than 100 nM.

As for `O=C(C#Cc1ccc(Cl)c(Cl)c1)N1CCN(C(=O)c2ccc(C(F)(F)F)cc2)CC1` [Compound C249, 3-(3,4-dichlorophenyl)-1-(4-{[4-(trifluoromethyl)phenyl]carbonyl}piperazinyl)prop-2-yn-1-one], under setting [1], the IC50 is less than 100 nM.

For the compound `O=C(c1cc2cc(C(F)(F)F)ccc2[nH]1)N1CCN(Cc2cc(F)cc(F)c2)CC1` [Compound C251, 4-[(3,5-difluorophenyl)methyl]piperazinyl 5-(trifluoromethyl)indol-2-yl ketone], under setting [1], the 50% inhibitory concentration (IC50) is less than 100 nM.

In the case of `O=C(c1cc2cc(Cl)ccc2[nH]1)N1CCC(Nc2cccc(F)c2)CC1` [Compound C252, 5-chloroindol-2-yl 4-[(3-fluorophenyl)amino]piperidyl ketone], the IC50 is less than 100 nM.

Regarding `O=C(C#Cc1ccc(F)cc1)N1CCN(C(=O)c2ccc(C(F)(F)F)cc2)CC1` [Compound C253, 3-(4-fluorophenyl)-1-(4-{[4-(trifluoromethyl)phenyl]carbonyl}piperazinyl)prop-2-yn-1-one], the IC50 under setting [1] was less than 100 nM.

For the compound `O=C(c1ccc(Cl)cc1)N1CCN(C(=O)c2cc3ccc(Cl)cc3[nH]2)CC1` [Compound C255, 6-chloroindol-2-yl 4-[(4-chlorophenyl)carbonyl]piperazinyl ketone], under setting [1], the IC50 is less than 100 nM.

For `COc1ccc(C(=O)N2CCN(C(=O)C=Cc3ccc4c(c3)OCO4)CC2)cc1` [Compound C256, 3-(2H-benzo[3,4-d]1,3-dioxolen-5-yl)-1-{4-[(4-methoxyphenyl)carbonyl]piperazinyl}prop-2-en-1-one], the IC50 under setting [1] is less than 100 nM.

`O=C(c1cnc2ccc(Cl)cc2c1)N1CCN(C(c2ccccc2)c2ccccc2)CC1` [Compound C257, 4-(diphenylmethyl)piperazinyl 6-chloro(3-quinolyl) ketone]: the concentration for half-maximal inhibition (IC50) under setting [1] was less than 100 nM.

`O=C(c1cc2cc(Cl)ccc2[nH]1)N1CCC(Nc2ccc(F)cc2F)CC1` [Compound C258, 4-[(2,4-difluorophenyl)amino]piperidyl 5-chloroindol-2-yl ketone]: the IC50 was less than 100 nM.

On to `CCCc1ccc(S(=O)(=O)N2CCN(C(=O)/C=C/c3ccc(F)cc3)CC2)cc1` [Compound C259, (2E)-3-(4-fluorophenyl)-1-{4-[(4-propylphenyl)sulfonyl]piperazinyl}prop-2-en-1-one], for which the IC50 under setting [1] is less than 100 nM.

`Cc1ccc(CN2CCN(C(=O)/C=C/c3ccccc3)CC2)cc1` [Compound C260] gave an IC50 of less than 100 nM.

Broadly, the IC50 is the concentration that gives 50% inhibition.
